Results reported in patent publication EP4273147A1, “SUBSTITUTED SPIROLACTAMS, SALTS THEREOF AND THEIR USE AS HERBICIDALLY ACTIVE SUBSTANCES” (Bayer Aktiengesellschaft, priority 2022, dated 2023).

Columns and labels:
SETVI [1] = assay: Herbicidal pre-emergence action, section C (Table C10); type: in vivo, Setaria viridis; settings: visual grading after ca. 3 weeks
BRSNW [2] = assay: Pre-emergence effects on crop plants (Table D5); type: in vivo, Brassica napus; settings: crop plant; application rate 80 g/ha; visual grading after ca. 3 weeks
ECHCG [3] = assay: Herbicidal pre-emergence action, section C (Table C6); type: in vivo, Echinochloa crus-galli; settings: visual grading after ca. 3 weeks
BRSNW [4] = assay: Post-emergence effects on crop plants (Table F5); type: in vivo, Brassica napus; settings: crop plant BRSNW
Text: (§1) 2 to 3 weeks after sowing, the test plants were sprayed in the single-leaf stage.

VERPE [5] = assay: Herbicidal pre-emergence action, section C (Table C11); type: in vivo, Veronica persica; settings: visual grading after ca. 3 weeks
Text: (§4) Seeds of mono- and dicotyledonous weed plants and crop plants were sown, in plastic or organic planting pots, in sandy loam and covered with soil. The compounds according to the invention, formulated in the form of wettable powders (WP) or as emulsifiable concentrates (EC), were applied to the surface of the covering soil as aqueous suspension or emulsion, with the addition of 0.5% of an additive, at an application rate of 600 1 of water/ha (converted). Following treatment, the pots were placed in a greenhouse and kept under optimum growth conditions for the test plants.

VERPE [6] = assay: Herbicidal post-emergence action, section E (Table E9); type: in vivo, Veronica persica; settings: application rate 320 g/ha; assessed visually after ca. 3 weeks
Text: as §1

VIOTR [7] = assay: Herbicidal pre-emergence action, section C (Table C12); type: in vivo, Viola tricolor; settings: visual grading after ca. 3 weeks
ORYZA [8] = assay: Pre-emergence effects on crop plants (Table D3); settings: crop plant; application rate 80 g/ha; visual grading after ca. 3 weeks
ORYZA [9] = assay: Post-emergence effects on crop plants (Table F3); type: in vivo, Oryza sativa; settings: application rate 320 g/ha, crop plant ORYZA
Text: as §1

ALOMY = assay: Herbicidal pre-emergence action, section C (Table C2); type: in vivo, Alopecurus myosuroides; settings: application rate 320 g/ha; visual grading after ca. 3 weeks
STEME = assay: Herbicidal pre-emergence action (Table A6); type: in vivo, Stellaria media; settings: visual grading after ca. 3 weeks
Outline: (§2)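 Double sowing per pot (1 monocot + 1 dicot weed species), sandy loam substrate, seeds covered with soil.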

POAAN [10] = assay: Herbicidal pre-emergence action (Table A7); type: in vivo, Poa annua; settings: visual grading after ca. 3 weeks
Outline: as §2

ZEAMX [11] = assay: Post-emergence effects on crop plants (Table F1); type: in vivo, Zea mays; settings: application rate 320 g/ha, crop plant ZEAMX
Text: as §1

TRZAS [12] = assay: Post-emergence effects on crop plants (Table F2); type: in vivo, Triticum aestivum; settings: application rate 320 g/ha, crop plant TRZAS
Text: as §1

TRZAS [13] = assay: Pre-emergence effects on crop plants (Table D2); type: in vivo, Triticum aestivum; settings: crop plant, visual grading after ca. 3 weeks
GLXMA = assay: Pre-emergence effects on crop plants (Table D4); type: in vivo, Glycine max; settings: crop plant, visual grading after ca. 3 weeks
POAAN [14] = assay: Herbicidal post-emergence action (Table B7); type: in vivo, Poa annua; settings: application rate 1280 g/ha
Outline: (§3)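 Greenhouse pot test in sandy loam; weeds sown, treated post-emergence at one-leaf stage 2–3 weeks after sowing. Activity rated visually about 3 weeks later versus untreated controls, 100% = plants dead, 0% = like controls.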

MATIN = assay: Herbicidal pre-emergence action (Table A4); type: in vivo, Matricaria inodora; settings: application rate 1280 g/ha; visual grading after ca. 3 weeks
Outline: as §2

SETVI [15] = assay: Herbicidal pre-emergence action (Table A5); type: in vivo, Setaria viridis; settings: application rate 320 g/ha; visual grading after ca. 3 weeks
Outline: as §2

ZEAMX [16] = assay: Pre-emergence effects on crop plants (Table D1); type: in vivo, Zea mays; settings: crop plant, visual grading after ca. 3 weeks
LOLRI [17] = assay: Herbicidal pre-emergence action (Table A3); type: in vivo, Lolium rigidum; settings: visual grading after ca. 3 weeks
Outline: as §2

ECHCG [18] = assay: Herbicidal post-emergence action, section E (Table E5); type: in vivo, Echinochloa crus-galli; settings: application rate 320 g/ha; assessed visually after ca. 3 weeks
Text: as §1

AMARE = assay: Herbicidal pre-emergence action (Table A8); type: in vivo, Amaranthus retroflexus; settings: application rate 1280 g/ha; visual grading after ca. 3 weeks vs untreated controls (100% = plants have died off, 0% = as control plants)
Text: Seeds of mono- and dicotyledonous weed plants were sown in plastic pots (double sowings with one species of mono- and one species of dicotyledonous weed plants per pot), in sandy loam, and covered with soil.

ABUTH [19] = assay: Herbicidal pre-emergence action (Table A1); type: in vivo, Abutilon theophrasti; settings: application rate 1280 g/ha; visual grading after ca. 3 weeks vs untreated controls (100% = plants have died off, 0% = as control plants)
Outline: as §2

ABUTH [20] = assay: Herbicidal post-emergence action (Table B1); type: in vivo, Abutilon theophrasti; settings: application rate 1280 g/ha; treated at one-leaf stage; rated visually after about 3 weeks vs untreated controls (100% = plants have died, 0% = like control plants)
Method: Seeds of mono- and dicotyledonous weed plants were placed in plastic pots in sandy loam soil (doubly sown with in each case one species of mono- or dicotyledonous weed plants per pot), covered with soil and cultivated in a greenhouse under controlled growth conditions. 2 to 3 weeks after sowing, the test plants were treated at the one-leaf stage. […] After the test plants had been kept in the greenhouse under optimum growth conditions for about 3 weeks, the activity of the preparations was rated visually in comparison to untreated controls. For example, 100% activity = the plants have died, 0% activity = like control plants.

DIGSA [21] = assay: Herbicidal pre-emergence action (Table A12); type: in vivo, Digitaria sanguinalis; settings: application rate 320 g/ha; visual grading after ca. 3 weeks
Outline: as §2

ECHCG [22] = assay: Herbicidal post-emergence action (Table B3); type: in vivo, Echinochloa crus-galli; settings: application rate 1280 g/ha; rated visually after about 3 weeks
Outline: as §3

LOLRI [23] = assay: Herbicidal pre-emergence action, section C (Table C7); type: in vivo, Lolium rigidum; settings: application rate 320 g/ha; visual grading after ca. 3 weeks
ABUTH [24] = assay: Herbicidal pre-emergence action, section C (Table C1); type: in vivo, Abutilon theophrasti; settings: application rate 320 g/ha; visual grading after ca. 3 weeks
DIGSA [25] = assay: Herbicidal pre-emergence action, section C (Table C5); type: in vivo, Digitaria sanguinalis; settings: application rate 320 g/ha; visual grading after ca. 3 weeks
VERPE [26] = assay: Herbicidal pre-emergence action (Table A11); type: in vivo, Veronica persica; settings: application rate 1280 g/ha; visual grading after ca. 3 weeks
Outline: as §2

KCHSC = assay: Herbicidal pre-emergence action (Table A10); type: in vivo, Kochia scoparia; settings: application rate 1280 g/ha; visual grading after ca. 3 weeks
Outline: as §2

ECHCG [27] = assay: Herbicidal pre-emergence action (Table A2); type: in vivo, Echinochloa crus-galli; settings: application rate 320 g/ha; visual grading after ca. 3 weeks
Outline: as §2

POLCO = assay: Herbicidal pre-emergence action, section C (Table C9); type: in vivo, Polygonum convolvulus; settings: application rate 320 g/ha; visual grading after ca. 3 weeks
Text: as §4

VIOTR [28] = assay: Herbicidal post-emergence action, section E (Table E10); type: in vivo, Viola tricolor; settings: application rate 320 g/ha; assessed visually after ca. 3 weeks
Text: as §1

Structure (SMILES)	pre-emergence activity against SETVI (SETVI [1]; application rate 320 g/ha) [%]	pre-emergence activity against ECHCG (ECHCG [3]; application rate 320 g/ha) [%]	pre-emergence activity against VIOTR (VIOTR [7]; application rate 320 g/ha) [%]	pre-emergence activity against ORYZA (ORYZA [8]) [%]	post-emergence activity against ORYZA (ORYZA [9]) [%]	pre-emergence activity against ALOMY (ALOMY) [%]	pre-emergence activity against POAAN (POAAN [10]; application rate 320 g/ha) [%]	post-emergence activity against ZEAMX (ZEAMX [11]) [%]	post-emergence activity against TRZAS (TRZAS [12]) [%]	post-emergence activity against POAAN (POAAN [14]) [%]	pre-emergence activity against MATIN (MATIN) [%]	pre-emergence activity against SETVI (SETVI [15]) [%]	pre-emergence activity against LOLRI (LOLRI [17]; application rate 1280 g/ha) [%]	post-emergence activity against ECHCG (ECHCG [18]) [%]	pre-emergence activity against VERPE (VERPE [5]; application rate 320 g/ha) [%]	post-emergence activity against ECHCG (ECHCG [22]) [%]	pre-emergence activity against ABUTH (ABUTH [24]) [%]	pre-emergence activity against DIGSA (DIGSA [25]) [%]	pre-emergence activity against ECHCG (ECHCG [27]) [%]	pre-emergence activity against ZEAMX (ZEAMX [16]; application rate 80 g/ha) [%]	other results
O=C1N(Cc2ccc(Cl)s2)CCCC12CCCN(Cc1ccc(Cl)s1)C2=O (racemic) [I-022]	100	100	80	10	10	90	100	0	10	90	90	100	90	90	–	–	–	–	–	–	pre-emergence activity against BRSNW (BRSNW [2]): 0%; post-emergence activity against BRSNW (BRSNW [4]; application rate 80 g/ha): 20%; pre-emergence activity against VERPE (VERPE [5]; application rate 80 g/ha): 100%; post-emergence activity against VERPE (VERPE [6]): 80%; pre-emergence activity against STEME (STEME; application rate 320 g/ha): 100%; pre-emergence activity against TRZAS (TRZAS [13]; application rate 320 g/ha): 10%; pre-emergence activity against GLXMA (GLXMA; application rate 80 g/ha): 20%; pre-emergence activity against ZEAMX (ZEAMX [16]; application rate 320 g/ha): 0%
O=C1N(Cc2ccccc2)CCCC12CCN(Cc1cccc(F)c1F)C2=O (racemic) [I-039]	100	–	90	20	0	100	100	20	0	–	90	100	100	–	80	90	90	100	100	0	pre-emergence activity against AMARE (AMARE): 90%; pre-emergence activity against ABUTH (ABUTH [19]): 90%; pre-emergence activity against ECHCG (ECHCG [3]; application rate 80 g/ha): 100%; post-emergence activity against ABUTH (ABUTH [20]): 90%; pre-emergence activity against DIGSA (DIGSA [21]): 100%; pre-emergence activity against LOLRI (LOLRI [23]): 90%; pre-emergence activity against STEME (STEME; application rate 1280 g/ha): 90%; pre-emergence activity against VERPE (VERPE [26]): 90%; pre-emergence activity against KCHSC (KCHSC): 90%
O=C1N(Cc2ccccc2Br)CCCC12CCCN(Cc1c(F)cccc1F)C2=O (racemic) [I-048]	–	100	–	0	0	–	–	20	20	90	90	100	–	80	–	90	90	–	100	0	pre-emergence activity against SETVI (SETVI [1]; application rate 80 g/ha): 100%; pre-emergence activity against POAAN (POAAN [10]; application rate 1280 g/ha): 90%; pre-emergence activity against TRZAS (TRZAS [13]; application rate 80 g/ha): 0%; pre-emergence activity against GLXMA (GLXMA; application rate 320 g/ha): 0%; pre-emergence activity against LOLRI (LOLRI [17]; application rate 320 g/ha): 100%
O=C1N(Cc2cc(F)c(F)cc2F)CCCC12CCCN(Cc1cc(F)c(F)cc1F)C2=O (single isomer, unassigned; (+)) [I-215, (+)-2,8-bis(2,4,5-trifluorophenylmethyl)-2,8-diazaspiro[5.5]undecane-1,7-dione]	100	100	–	–	–	100	–	0	0	–	–	–	–	90	80	–	–	100	–	–	post-emergence activity against BRSNW (BRSNW [4]; application rate 320 g/ha): 0%; pre-emergence activity against VIOTR (VIOTR [7]; application rate 80 g/ha): 90%; pre-emergence activity against POLCO (POLCO): 80%; post-emergence activity against VIOTR (VIOTR [28]): 80%
